The values below come from PMC8949075, “Evaluation of Two Novel Hydantoin Derivatives Using Reconstructed Human Skin Model Episkin^TM: Perspectives for Application as Potential Sunscreen Agents” (Molecules, 2022).

Where only a bound is given, the exact number is not on record here.

What is called viability is the share of living cells, or the viability signal relative to a control.

On the set-up of series [1]: method as in PMID 31238526. As to conditions: 2% (w/w) macrogol formulations; cited from earlier work.
Series [2] in a line: CHO-K1 cytotoxicity assay (MTT). It is filed as cell-based. The settings on record: Chinese hamster, concentrations ranging from 1 to 10 µM, read-out: viability of cells. The method, then:
The Chinese hamster ovary CHO-K1 cell line was obtained from the American Type Culture Collection (ATCC CCL-61). The CHO-K1 cell line was cultured in a humidified incubator at 37 °C with 5% CO2, in F-12K Medium (Kaighn’s Modification of Ham’s F-12 Medium) (ATCC) supplemented with 10% fetal bovine serum (FBS; Gibco, Waltham, MA, USA) and antibiotics (1% streptomycin/penicillin salts mixture, Sigma–Aldrich, Darmstadt, Germany).
The cells were seeded at a density of 6 × 10^3 on 96-well plates. […] Test compounds and 4MBC were dissolved in DMSO (solvent, final concentration 0.1%) and ethanol (co-solvent, final concentration 1%). At the end of the incubation period, 10 µL of MTT reagent was added to each well. After 4 h incubation (37 °C, 5% CO2), the medium was discarded, and the formazan produced in the cells appeared as dark crystals in the bottom of the wells. Next, pure DMSO was added to each well. The optical density data of converted dye was measured at 570 nm (A570) on microplate reader. […] The experiment was conducted two times with three repetitions for each condition.

Another series can be described thus: in vitro. The settings on record: human, 26 mg/cm^2.
Series [3] deals with MCF-7 breast cancer model. Details: method as in PMID 31238526. As to conditions: cited from earlier work.
Series [4] in a line: In vitro microsomal biotransformation. It is filed as in vitro ADME, human. As to conditions: for t1/2 (in vitro half time): HLMs 0.8 mg/mL; for t1/2 (in vitro half time) / microsomal CLint at 20 µM / half-life at 20 µM: 20 µM, 37 °C; for Biotransformation (main metabolite M, ΔM −28): in the absence or presence of NADPH; for microsomal CLint at 20 µM / half-life at 20 µM: human, liver microsomes, pH 7.4, HLMs 0.8 mg/mL; for microsomal CLint at 20 µM: read-out: Clint (intrinsic clearance); for half-life at 20 µM: read-out: t1/2 (in vitro half time). The method, then: The microsome incubation procedure was adapted from the previous studies. Reaction mixtures comprising the test compound JH3 or JH10 (20 µM in methanol), human liver microsomes (HLMs; Sigma Aldrich, Darmstadt, Germany) (0.8 mg/mL), and 100 mM potassium phosphate buffer (pH 7.4) were preincubated before the addition of NADPH-regenerating system (NADP, glucose-6-phosphate and glucose-6-phosphate dehydrogenase in potassium phosphate buffer). The NADPH-regenerating system and buffer components were obtained from Sigma-Aldrich (Darmstadt, Germany). Incubation was conducted for different time points (i.e., 5, 15, and 30 min) with temperature set at 37 °C. The reaction was quenched with ice-cold methanol, followed by the addition of internal standard (IS)–PTX (20 µM). The mixture was then centrifuged.
(§1) Supernatant analysis was performed using UHPLC/MS (Waters Corporation, Milford, MA, USA). Two control samples were prepared with each incubation set. The first, a mixture of a test compound and potassium phosphate buffer, and without the addition of HLMs nor the NADPH-regenerating system, was used to exclude the possibility of hydrolysis facilitated by the buffer solution. The second, a mixture of a test compound, potassium phosphate buffer and HLMs, but without the NADPH-regenerating system solution, was designed to evaluate the production of metabolites in the presence of enzymes but the absence of NADPH [14, 82]. The assays were repeated two times. The in vitro half time (t1/2) for JH3 was established from the slope of the linear regression of ln percent parent compound remaining against incubation time. Intrinsic clearance (Clint) was obtained from the equation: Clint = (volume of incubation [µL] (i.e., 250 µL)/protein in the incubation [mg] (i.e., 0.2 mg)) × 0.693/t1/2 [83, 84, 85].
On the technique in general: Liver microsomes are vesicles of endoplasmic reticulum, rich in cytochrome P450 enzymes.

On the set-up of series [5]: method as in PMID 31238526. As to conditions: cited from earlier work.
Series [6] can be described thus: Relative lipophilicity by reversed-phase thin-layer chromatography. The series is classed as physicochemical. The settings on record: RP-TLC, RP-18 plates, methanol/phosphate buffer pH 7.4, extrapolated to 0% methanol. The method, then:
The experimental log P was determined by reversed-phase thin-layer chromatography (RP-TLC). TLC was carried out on plates precoated with silica gel RP-18 F254 (Merck, Darmstadt, Germany). The mobile phases used were the mixtures of methanol (commercially available material of reagent grade) and 100 mM potassium–phosphate buffer (pH = 7.4), with the methanol content ranging from 95 to 65% (v/v) in 5% increments. A total of 10 μL of test compound solutions in methanol (1 mg/mL) were spotted on the plates. The plates were developed in chromatographic chambers previously saturated with solvent for 1 h. After development (at room temperature in a normal chamber: 22 × 22 × 7 cm) and the drying of the plates, the spots were observed under a UV lamp (λ = 254 nm). The Rf values were mean values from two independent chromatographic runs. The experimental Rf was converted into the RM value according to the following equation [66]: RM = log (1/Rf − 1). The calculated values were extrapolated for a 0% methanol concentration (RM0) using the equation: RM = RM0 + bC, where C is the concentration (%, v/v) of methanol in the mobile phase and b is the regression term.

Series [7] is described as follows: Incubation in buffer (pH 7.4) without HLMs (spontaneous hydrolysis control). It is filed as physicochemical. The settings on record: buffer pH = 7.4, no HLMs, 30 min, 37 °C. The method, then:
as §1

With `CCOC(=O)CN1C(=O)/C(=C/C=C/c2ccc(OC)cc2)N(CC(=O)OCC)C1=O` [JH3, diethyl 2,2′-((Z)-4-((E)-3-(4-methoxyphenyl)allylidene)-2,5-dioxoimidazolidine-1,3-diyl)diacetate], in series [1], the “SPFin vitro (sun protection factor)” value is 1.68 ± 0.04, the “UVA PF” value is 6.83 ± 0.05, the “UVA/UVB Ratio” value is reported as 4.50 ± 0.32 and the λc was 391 nm. In addition, the viability at 24 h in series [2] is more than 75%. Besides, the viability at 15 min in the series “in vitro” is not below 50%. In addition, the estrogenic activity entry in series [3] is recorded as “no estrogenic activity”. For the same compound, in series [4], the “t1/2 (in vitro half time)” value is reported as 5 - min, the microsomal CLint at 20 µM was more than 172 µL/min/mg and the half-life at 20 µM was approximately 5 min. For the same compound, the parent compound remaining entry in series [4] (HLMs, 15 min time point) was “Approximately 5%”. Further, the “Biotransformation (main metabolite M, ΔM −28)” value in series [4] (HLMs) is recorded as “- Hydrolysis”. Moreover, the photostability entry in series [5] is “photostable”. Further, the “relative lipophilicity value (RM0)” value in series [6] was 3.22. In series [7], the “spontaneous hydrolysis in buffer” value is listed as “no signs of spontaneous hydrolysis”.
Consider `CCOC(=O)CN1C(=O)/C(=C/c2ccc(OC)cc2)N(CC(=O)OCC)C1=O` [JH10, diethyl 2,2′-((Z)-4-(4-methoxybenzylidene)-2,5-dioxoimidazolidine-1,3-diyl)diacetate], for which, in series [1], the “SPFin vitro (sun protection factor)” value is on record as 3.07 ± 0.04, the “UVA PF” value is 2.59 ± 0.23, the “UVA/UVB Ratio” value was 0.84 ± 0.08 and the λc was 366 nm. For the same compound, in series [2], the viability at 24 h is more than 75%. The viability at 15 min in “in vitro” is not below 50%. Moreover, the estrogenic activity result in series [3] was “no estrogenic activity”. In series [4], the “t1/2 (in vitro half time)” value is <<5 - min, the microsomal CLint at 20 µM was more than 172 µL/min/mg and the half-life at 20 µM was approximately 5 min. For the same compound, the parent compound detected result in series [4] (HLMs, 5 min time point) is “less than 0.5%”. Also, in series [4] (HLMs), the “Biotransformation (main metabolite M, ΔM −28)” value is “- Hydrolysis”. Besides, the photostability result in series [5] is “photostable”. Also, the “relative lipophilicity value (RM0)” value in series [6] is recorded as 2.46. Moreover, the “spontaneous hydrolysis in buffer” value in series [7] is recorded as “no signs of spontaneous hydrolysis”.
